Reference: patent publication US12178825B2, “Method and compositions for forming a copper-containing complex and uses thereof” (COLD SPRING HARBOR LABORATORY, priority 2017, dated 2024)
Entries after “also recorded” stand apart in the source; their conditions may differ.

Tests used:
[1] = test system: TX mice; experiment: Tissue and fecal copper levels (ICP-MS, rhodanine staining); format: in vivo, mouse
Procedure: C3He-Atp7b^tx-j were obtained from the Jackson laboratory. All animal experiments were performed according to protocols approved by the Institutional Animal Use and Care Committee of Cold Spring Harbor laboratory. Mice were injected intraperitoneally (i.p.) with vehicle, or administered DPM-1001 intraperitoneally or orally at 5 mg/kg once every third day, for over a year. At the end of the study animals were euthanized and tissue samples were removed for biochemical studies.
Tissue samples from wild-type or TX mice treated with saline, DPM-1001 or tetrathiomolybdate was washed three times with PBS containing 1 mM EDTA (to remove nonspecifically bound copper). Then, 215 μl of concentrated nitric acid (BDH Aristar Ultra) was added to each sample and incubated overnight. Samples were boiled at 95° C. for 1 h. and approximately 150 μl of each sample was further diluted in 2 ml 2% nitric acid (made freshly from concentrated nitric acid and Milli-Q water) Samples were analyzed on a Thermo Fisher iCAP Qc ICP mass spectrometer in kinetic energy discrimination (KED) mode against a calibration curve of known copper and phosphorus concentrations, with Ga (20 μg/l, Inorganic Ventures) as an internal standard, Each experiment was carried out twice and each condition was repeated in at least triplicate.
Liver tissues from wild-type and TX mice from untreated and DPM-1001-treated mice were sectioned and stained with H&E or rhodanine. Whole-slide, digitized images of H&E-stained tissue were captured using the Aperio ScanScope XT automated scanning system (Vista, CA). Image J software was used to quantitate rhodanine staining.

[2] = ESI-MS analysis of complex formation with copper salts; format: binding; conditions: for Percentage (binding percentage): DPM-1013:Cu = 1:8
Procedure: Eight equivalents of M(NO3)2·xH2O or MSO4·xH2O (M=Cu, Zn) were reacted with 1 eq. of DPM-1001 (1 mM in H2O). The reaction solutions were stirred at RT, 40° C. and 80° C. for 2 h. Mass spectra were recorded on a Bruker Esquire 6000 HCT quadrupole ion trap instrument (Bruker Daltonik GmbH, Leipzig, Germany), equipped with an electrospray ionization (ESI) source. Generation of the molecular formula of the DPM-1001/Cu(II) species and the comparison between the theoretical (simulated) and the measured isotopic patterns was performed using the DataAnalysis 4.0 software (Bruker).
(§1) Eight equivalents of M(NO3)2·xH2O or MSO4·xH2O were reacted with 1 eq. of DPM-1001, DPM-1003 or analog 2 (1 mM in H2O). The reaction solutions were stirred at RT, 40° C. and 80° C. for 2 h. Each sample was diluted 5-fold in 50% methanol, 0.1% formic acid and loaded into a 500 μL syringe. A Thermo Vantage triple quadrupole mass spectrometer (Thermo Scientific), equipped with an HESI spray source was coupled to an Accela HPLC system (Thermo Scientific). Mobile phase A consisted of 0.1% formic acid and mobile phase B consisted of 0.1% formic acid in methanol. Isocratic flow was set to 50% B at 200 μL/min. 200 μl samples were injected into the LC flow line via syringe pump at 10 μL/min and electrosprayed into the Vantage triple quadrupole mass spectrometer. A spray voltage of 4.3 kV was used along with a capillary temperature of 350° C. Each full MS scan was 0.5 s and data were collected with a scan range of 200 m/z to 900 m/z over 1 min.
Binding of compounds of Formula I other than DPM-1001 was also confirmed. In an ESI-MS test, compound DPM-1013 as hydrochloride salt was dissolved in distilled water at a concentration of 2 mM freshly before testing. It was then mixed with an equal volume copper sulfate (16 mM) or copper chloride solution (16 mM) for 2 h, rendering a concentration of DPM-1013 at 1 mM and the copper salt 8 mM. The mixture was then further diluted 100-fold before injection into an ESI-MS, making a final concentration of DPM-1013 of 10 μM and Cu 80 μM in the test.
Binding percentage=peak intensity of all DPM-1013-Cu complex/(peak intensity of all DPM-1013-Cu complex+peak intensity of free DPM-1013).

[3] = test system: MDA-MB-231 cells; experiment: Cell survival; format: cell-based
Procedure: (§2) The MTT assay was used to evaluate cell survival in the absence and presence of different compounds. The thiazolyl blue tetrazolium bromide (MTT) was dissolved in phosphate buffered saline (PBS) at a concentration of 5 mg/ml, filtered, and stored at 4° C. About 10,000 cells were seeded into a 96-well plate and cultured in growth medium containing serum. After 24 hours, cells were treated with the indicated concentrations of DPM-1001 or DPM-1003 (0-100 uM) for 2 hrs. Following which 20 μl MTT was added into each well. An ELISA plate reader (Biotek, Winooski, Vermont, USA) was used to measure the optical density at 490 nm.
MDA-MB-231 cells (1×10^5) were seeded in 6 cm plates in growth medium. The cells were untreated or treated with DPM-1001 (0.5, 1, 2 and 5 μM), DPM-1003 (0.5, 1, 2 and 5 μM) or TTM (25, 50, 100 μM) for 1 h. Following which, media was gently aspirated and cells were washed with PBS. To each plate 0.5 ml of crystal violet (0.5%) was added and incubated in dark for 10 minutes at room temperature. The staining solution was removed and plates were washed with PBS (three times). The cells stained with the dye were imaged.

[4] = test system: HCC70 cells; experiment: Cell survival; format: cell-based
Procedure: as §2

[5] = test system: MCF-7; experiment: Cell survival; format: cell-based
Procedure: as §2

[6] = test system: MDA-MB-468 cells; experiment: Cell survival; format: cell-based
Procedure: as §2

[7] = test system: SUM149 cells; experiment: Cell survival; format: cell-based
Procedure: as §2

[8] = test system: SUM159; experiment: Cell survival; format: cell-based
Procedure: as §2

[9] = test system: AZD6244-insensitive cells; experiment: Immunoblot of phospho-MEK and phospho-Erk; format: cell-based; conditions: AZD6244-insensitive (resistant) cells
Text: (§3) Equal quantities of lysates were isolated from indicated cell lines and then resolved by SDS-PAGE and immunoblotted with one of the following primary antibodies: mouse anti-MEK1/2, rabbit anti-p-PAK1, rabbit anti-PAK1, rabbit anti-ERK1/2, rabbit anti-phospho(Ser 217/221)-MEK1/2, rabbit anti-phospho(Thr 202/Tyr 204)-ERK1/2, rabbit anti-phospho (Ser 338)-c-RAF, rabbit anti-RAF, rabbit anti-phospho (Ser 112)-BAD and rabbit anti-BAD (Cell Signaling Technology), mouse anti-β-actin (Sigma), followed by detection with one of the following horseradish peroxidase-conjugated secondary antibodies: goat anti-rabbit IgG, goat anti-mouse IgG (Invitrogen), mouse anti-rabbit light-chain-specific IgG (Jackson ImmunoResearch Laboratories) using enhanced chemiluminescence (ECL; GE Healthcare) or SuperSignal West Femto Chemiluminescent substrate (Pierce) detection reagents.

[10] = test system: AZD6244-sensitive cells; experiment: Immunoblot of phospho-MEK and phospho-Erk; format: cell-based; conditions: 1-2 μM AZD6244
Text: as §3

[11] = ESI-MS analysis of complex formation with a series of other metal ions; format: binding; conditions: panel of metals
Procedure: as §1

[12] = target: T1, PTP1B1-405 (Homo sapiens, UniProt P18031); experiment: PTP1B phosphatase activity assay, DiFMUP substrate, long form; format: biochemical
T1 construct: PTP1B1-405 (the long form of PTP1B which contains the extended C-terminal segment); made in house; host or cells: Escherichia coli BL21 (DE3)-RIL
T1 sequence (P18031 1-405): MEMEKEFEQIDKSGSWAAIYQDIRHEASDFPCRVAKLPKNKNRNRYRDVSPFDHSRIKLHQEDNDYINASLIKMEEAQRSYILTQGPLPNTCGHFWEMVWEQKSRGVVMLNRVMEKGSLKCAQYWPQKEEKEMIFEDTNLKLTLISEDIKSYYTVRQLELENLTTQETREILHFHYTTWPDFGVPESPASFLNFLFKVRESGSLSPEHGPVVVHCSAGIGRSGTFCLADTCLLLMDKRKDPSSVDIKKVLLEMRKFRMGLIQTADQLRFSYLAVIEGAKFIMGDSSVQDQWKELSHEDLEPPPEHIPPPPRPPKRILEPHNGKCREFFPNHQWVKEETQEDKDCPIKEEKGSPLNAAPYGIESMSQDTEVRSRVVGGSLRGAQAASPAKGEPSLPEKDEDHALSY
Procedure: (§4) All common reagents were obtained from Thermo Fisher Scientific (Waltham, MA) or Sigma-Aldrich (St. Louis, MO). Difluoro-4-methylumbelliferyl phosphate (DiFMUP) was obtained from Invitrogen (cat #D22065). Solid black 384-well plates (cat #3573) for phosphatase assays were from Corning Incorporated (Corning, NY).
(§5) Wild-type PTP1B containing a His-tag was expressed in Escherichia coli BL21 (DE3)-RIL using LB. Cells were resuspended in lysis buffer (50 mM Hepes pH 7.2, 150 mM NaCl, 10 mM imidazole, 2 mM TCEP) with cOmplete EDTA-free Protease Inhibitor Cocktail (Roche), and then lysed using a sonicator at 4° C. Lysates were clarified by centrifugation. Initial protein purification was by gravity flow, nickel column chromatography. Protein was used immediately or stored at −80° C. in 50 mM HEPES pH 7.4, 100 mM NaCl, 2 mM dithiothreitol and 25% glycerol.

[13] = target: T2, PTP1B1-321 (Homo sapiens, UniProt P18031); experiment: PTP1B phosphatase activity assay, short form; format: biochemical; conditions: enzyme-inhibitor complex diluted, activity recovery monitored
T2 construct: C-terminally truncated PTP1B (1-321); made in house; host or cells: Escherichia coli BL21 (DE3)-RIL
T2 sequence (P18031 1-321): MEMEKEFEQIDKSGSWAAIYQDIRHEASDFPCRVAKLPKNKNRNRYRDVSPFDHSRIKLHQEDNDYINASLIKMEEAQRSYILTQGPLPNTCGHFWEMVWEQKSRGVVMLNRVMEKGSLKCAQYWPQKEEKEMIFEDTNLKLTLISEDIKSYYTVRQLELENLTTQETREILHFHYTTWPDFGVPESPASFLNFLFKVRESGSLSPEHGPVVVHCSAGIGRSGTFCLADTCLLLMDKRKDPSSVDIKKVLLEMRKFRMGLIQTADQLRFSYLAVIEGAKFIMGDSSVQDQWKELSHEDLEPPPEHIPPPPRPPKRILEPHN
Procedure: as §4, §5

[14] = target: PTP1B-L192A/S372P (Homo sapiens, UniProt P18031, L192A/S372P); experiment: Phosphatase assay with MSI-1436-resistant mutant; format: biochemical
Text: as §4

PTP1B-L192A/S372P, sequence (P18031 whole entry L192A/S372P): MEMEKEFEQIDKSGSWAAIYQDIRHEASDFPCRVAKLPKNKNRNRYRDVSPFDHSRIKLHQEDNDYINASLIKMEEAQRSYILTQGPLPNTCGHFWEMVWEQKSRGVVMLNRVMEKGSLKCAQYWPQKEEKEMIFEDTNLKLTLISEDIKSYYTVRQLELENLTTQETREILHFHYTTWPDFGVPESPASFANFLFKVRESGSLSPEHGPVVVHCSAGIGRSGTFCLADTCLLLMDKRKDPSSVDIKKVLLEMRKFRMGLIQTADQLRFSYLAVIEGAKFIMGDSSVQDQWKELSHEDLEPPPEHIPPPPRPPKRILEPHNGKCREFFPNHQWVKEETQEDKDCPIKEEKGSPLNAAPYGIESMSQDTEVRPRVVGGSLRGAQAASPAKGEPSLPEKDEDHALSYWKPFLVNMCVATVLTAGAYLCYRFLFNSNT

In the case of `[SH-].[SH-].[S]=[Mo]=[S]` [tetrathiomolybdate, reference compound], the “copper levels in feces” value ([1]; TX mice) is reported as “only a small increase”, the “copper levels in liver and brain” value ([1]; TX mice, ICP-MS) is reported as “prevented accumulation of copper in liver and brain” and the “copper levels in kidney” value ([1]; wild-type and TX mice, ICP-MS) is reported as “caused accumulation of copper in the kidney; also recorded: dramatically elevated copper levels in the kidney”.
In the case of `COC(=O)CC[C@@H](C)[C@H]1CC[C@H]2[C@@H]3[C@H](O)C[C@@H]4C[C@@H](NCCCCNCc5ccccn5)CC[C@]4(C)[C@H]3CC[C@]12C` [DPM-1013], the “complex formation with copper” value [2] is reported as “formed complexes with free Cu, CuSO4; also recorded: formed complexes with free Cu, CuCl2”, the “Percentage (binding percentage)” value ([2]; CuCl2) is reported as 74.29% and the “Percentage (binding percentage)” value ([2]; CuSO4) is reported as 82.23%.
In the case of `Cn1cnc2c(F)c(Nc3ccc(Br)cc3Cl)c(C(=O)NOCCO)cc21` [AZD6244, 6-(4-bromo-2-chloroanilino)-7-fluoro-N-(2-hydroxyethoxy)-3-methylbenzimidazole-5-carboxamide], the “survival of MDA-MB-231 cells” value [3] is reported as “inhibited cell survival”, the “survival of HCC70 cells” value [4] is reported as “without effect on survival” and the “survival of MCF-7 cells” value [5] is reported as “inhibited cell survival”. The “survival of MDA-MB-468 cells” value [6] was “without effect on survival”, the “survival of SUM149 cells” value [7] was “without effect on survival” and the “survival of SUM159 cells” value [8] was “inhibited cell survival”. For the same compound, the “phospho-MEK and phospho-Erk” value [9] was “without effect” and the “phospho-MEK and phospho-Erk” value [10] was “reduced phospho-MEK and phospho-Erk”.
For `c1ccc(CNCCCCNCc2ccccn2)nc1` [Analog 2, N^1,N^4-bis(pyridin-2-ylmethyl)butane-1,4-diamine], the “complex formation with copper” value [2] was “Cu(II)-bound form” and the “complex formation with other metals” value [11] was “bound to all the metals tested”.
In the case of `CC(C)[C@@H](CC[C@@H](C)[C@H]1CC[C@H]2[C@@H]3[C@H](O)C[C@H]4C[C@@H](NCCCNCCCCNCCCN)CC[C@]4(C)[C@H]3CC[C@]12C)OS(=O)(=O)O` [MSI-1436, 3-N-1(spermine)-7,24-dihydroxy-5-cholestane 24-sulfate, reference compound], the “reversibility of inhibition of PTP1B1-405” value ([12]; enzyme-inhibitor complex diluted, activity recovery monitored) is reported as “reversible inhibitor”, the “time until PTP1B activity recovers” value ([12]; sample diluted 100-fold) is reported as at most 60 min and the “reversibility of inhibition of PTP1B1-321” value [13] is reported as “reversible inhibitor”. For the same compound, the “sensitivity of PTP1B-L192A/S372P to inhibitor” value [14] was “insensitive” and the “complex formation with copper” value [2] was “does not form a complex with copper”.
